The values below come from PubChem BioAssay (NCI).

Some test systems named below: RPMI-8226 leukemia; MDA-N; SK-MEL-28 melanoma; SW-620 colon; A549 NSCLC; SK-MEL-2 melanoma; HCT-15 colon; CCRF-CEM leukemia; SK-OV-3 ovarian; HL-60(TB) leukemia.
What all share (assay): growth of human tumour cells (NCI), 48 h

Each structure is given as a SMILES string.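 Exposure lasted 48 hours, with cells grown in 96-well plates and compounds tested at five concentrations. Here, GI50 denotes the concentration required for 50% inhibition of growth. The concentration for full growth arrest is given as TGI.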 Where a SMILES comes first, the peptide text is derived from it. The star is where a group is joined. Boc = CC(C)(C)OC(=O)*

In the case of `Nn1c(SCC(=O)NCc2ccccc2)nc2ccccc2c1=O`, the TGI in the assay on RPMI-8226 leukemia, in the assay on MDA-N, in the assay with SK-MEL-28 melanoma, with SW-620 colon, in the assay with A549 NSCLC and in the assay on SK-MEL-2 melanoma was > 100 µM each time. Further, the TGI in the assay with HCT-15 colon and with CCRF-CEM leukemia was > 100 µM in each case.
For the compound `NC(Cc1c[nH]c2ccccc12)C(=O)O` (stereo unspecified), the TGI in the assay on SK-OV-3 ovarian, in the assay on RPMI-8226 leukemia, in the assay with SK-MEL-28 melanoma, in the assay on HL-60(TB) leukemia, in the assay with SW-620 colon and in the assay on A549 NSCLC was > 300 µM in each case. In addition, the TGI in the assay on SK-MEL-2 melanoma was > 300 µM; with HCT-15 colon, > 191 µM; in the assay on CCRF-CEM leukemia it was > 300 µM.
As for `CCOCC(NC(=O)C(CC(C)C)NC(=O)OC(C)(C)C)C(N)=O` (stereo not drawn) (Boc-Leu-Ser(Et)-NH2; configuration not given here), the TGI in the assay on SK-OV-3 ovarian is > 100 µM; with MDA-N, > 100 µM; with SK-MEL-28 melanoma, 2.84 µM; with HL-60(TB) leukemia it was > 100 µM; in the assay with SW-620 colon, 3.27 µM; in the assay on A549 NSCLC, > 100 µM. The TGI in the assay with SK-MEL-2 melanoma, with HCT-15 colon and in the assay with CCRF-CEM leukemia was > 100 µM each time.
Regarding `COc1ccc(CCCC(=O)O)c(C)c1`, the TGI with MDA-N, with SK-MEL-28 melanoma, in the assay on HL-60(TB) leukemia, in the assay with SW-620 colon, with A549 NSCLC and in the assay with SK-MEL-2 melanoma was > 100 µM throughout. The TGI in the assay with HCT-15 colon and with CCRF-CEM leukemia was > 100 µM throughout.
Regarding `Nc1nc(N)c2nc(-c3ccco3)cnc2n1`, the TGI was > 100 µM in the assay on SK-OV-3 ovarian; > 100 µM in the assay on RPMI-8226 leukemia; > 100 µM in the assay on SK-MEL-28 melanoma; 89.6 µM in the assay on HL-60(TB) leukemia; > 100 µM in the assay with A549 NSCLC; > 100 µM with HCT-15 colon. Further, the TGI with CCRF-CEM leukemia is > 100 µM.
For `CCOC(=O)c1c(C)[nH]c(/C=C2\N=C(c3ccc[nH]3)C=C2OC)c1C`, the GI50 with SK-OV-3 ovarian was 0.413 µM; with HL-60(TB) leukemia, 0.0232 µM; in the assay on SW-620 colon, < 0.01 µM; with A549 NSCLC, 0.0457 µM; in the assay on HCT-15 colon, < 0.01 µM. Also, the TGI with SK-OV-3 ovarian is 3.71 µM; in the assay with HL-60(TB) leukemia it was 0.442 µM; with SW-620 colon it was 1.33 µM; in the assay with A549 NSCLC, 1.28 µM; with HCT-15 colon it was 1.07 µM.
In the case of `Cn1c2ccccc2n2c(=O)c3cccnc3c(C#N)c12`, the TGI in the assay with SK-OV-3 ovarian, in the assay on RPMI-8226 leukemia, in the assay with MDA-N, in the assay on SK-MEL-28 melanoma, with SW-620 colon and in the assay on HCT-15 colon was > 100 µM in each case.
Take `CC(=N/NC(=S)N1CCCCC1)/C(C)=N\NC(=S)N1CCCCC1`: the TGI in the assay on SK-OV-3 ovarian is 3.32 µM; in the assay on RPMI-8226 leukemia it was 5.13 µM; with MDA-N it was 6.44 µM; in the assay on SK-MEL-28 melanoma, 3.99 µM; in the assay on A549 NSCLC, 4.04 µM; with SK-MEL-2 melanoma, 4.65 µM. This compound also showed a TGI in the assay with HCT-15 colon of 5.31 µM.
Take `CCOC(=O)c1cc(=O)oc2c1N(C)c1ncccc1N2`: the TGI in the assay with SK-OV-3 ovarian, in the assay on RPMI-8226 leukemia, with MDA-N, with SK-MEL-28 melanoma, with SW-620 colon and in the assay with A549 NSCLC was > 100 µM each time. For the same compound, the TGI in the assay with SK-MEL-2 melanoma and in the assay with HCT-15 colon was > 100 µM each time.
For `COc1ccc(C2SCC(=O)N2NC(=O)C(C)Oc2ccccc2Cl)cc1` (stereo unspecified), the TGI was > 100 µM in the assay on RPMI-8226 leukemia; > 100 µM with SK-MEL-28 melanoma; 35.2 µM with HL-60(TB) leukemia; > 100 µM in the assay on SW-620 colon; > 100 µM in the assay on A549 NSCLC; 50 µM with SK-MEL-2 melanoma. Also, the TGI in the assay on HCT-15 colon was > 100 µM; with CCRF-CEM leukemia it was 79.6 µM.
Take `COc1cc2cc(C(=O)N3CC(CCl)c4c3cc(N(C)C)c3ccccc43)[nH]c2c(OC)c1OC` (stereo unspecified): the TGI is 0.0395 µM in the assay on SK-OV-3 ovarian; 0.501 µM in the assay on RPMI-8226 leukemia; > 100 µM in the assay on SW-620 colon; < 0.01 µM in the assay on SK-MEL-2 melanoma; > 41.4 µM with HCT-15 colon.
Regarding `CC[C@@]1(O)C(=O)OCc2c1cc1n(c2=O)Cc2c-1nc1ccccc1c2/C=N\NC(=O)C(N)Cc1cnc[nH]1` (stereo partly specified), the TGI in the assay on SK-OV-3 ovarian was > 100 µM; in the assay with RPMI-8226 leukemia, 44 µM; in the assay with MDA-N, > 100 µM; in the assay on SK-MEL-28 melanoma, > 100 µM; in the assay with SW-620 colon, > 100 µM; in the assay on A549 NSCLC it was > 100 µM. Moreover, the figures for the TGI with SK-MEL-2 melanoma, with HCT-15 colon and in the assay with CCRF-CEM leukemia were > 46.5 µM, > 100 µM and 15 µM, respectively.
Take `O=c1c(-c2ccccc2Cl)coc2cc(F)ccc12`: the TGI with SK-OV-3 ovarian was > 100 µM; in the assay on MDA-N, 25 µM; with SK-MEL-28 melanoma it was > 100 µM; in the assay with HL-60(TB) leukemia, 31.2 µM; in the assay with SW-620 colon it was > 100 µM; in the assay with A549 NSCLC it was > 100 µM. The TGI with SK-MEL-2 melanoma, in the assay on HCT-15 colon and in the assay on CCRF-CEM leukemia was > 100 µM each time.
As to `Cc1ccc(Nc2sc(C)cc2C#N)c([N+](=O)[O-])c1`, the TGI with SK-OV-3 ovarian, in the assay on RPMI-8226 leukemia, in the assay on MDA-N, with SK-MEL-28 melanoma, with SW-620 colon and in the assay with A549 NSCLC was > 100 µM in each case. Moreover, the TGI in the assay on HCT-15 colon and in the assay with CCRF-CEM leukemia was > 100 µM throughout.
Regarding `O=C(NCCCCNCCCNC(=O)c1cc(-c2ccccc2)nc2ccccc12)c1cc(-c2ccccc2)nc2ccccc12`, the TGI stood at 6.33 µM with RPMI-8226 leukemia; 3.23 µM with MDA-N; 3.42 µM in the assay with SK-MEL-28 melanoma; 3.1 µM with SW-620 colon; 3.01 µM in the assay with A549 NSCLC; 3.49 µM with SK-MEL-2 melanoma. In the assay with HCT-15 colon, this compound returned a TGI of 3.46 µM.
In the case of `O=C(OCC1CCCN2CCCCC12)c1ccncc1` (stereo unspecified), the TGI with SK-OV-3 ovarian, in the assay on RPMI-8226 leukemia, with MDA-N, in the assay with SK-MEL-28 melanoma, in the assay with SW-620 colon and in the assay with A549 NSCLC was > 100 µM in each case. The TGI with SK-MEL-2 melanoma, with HCT-15 colon and in the assay with CCRF-CEM leukemia was > 100 µM each time.
For `CCc1n[nH]c(=O)n1NC(=O)c1ccccc1C(=O)O`, the TGI in the assay on SK-OV-3 ovarian, with RPMI-8226 leukemia, with MDA-N, in the assay on SK-MEL-28 melanoma, in the assay with SW-620 colon and with A549 NSCLC was > 100 µM each time. For the same compound, the TGI in the assay with SK-MEL-2 melanoma, in the assay with HCT-15 colon and with CCRF-CEM leukemia was > 100 µM each time.
